Data published in PMC6406907, “A H2AX–CARP-1 Interaction Regulates Apoptosis Signaling Following DNA Damage” (Cancers, 2019).

Tested on: CARP-1, phospho-JNK1/2, phospho-H2AX, PARP
Test: Western blot of CARP-1, phospho-JNK1/2, γH2AX, cleaved PARP in MDA-MB-468
Assay type: cell-based, human
Details: for expression of CARP-1, phospho-JNK1/2, phospho-H2AX / PARP cleavage: MDA-MB-468, WB; for PARP cleavage: robust cleaved PARP over 12-h treatment period; for CARP-1 levels and γH2AX: MDA-MB-468, WB / IF
Description: Logarithmically growing cells were either untreated or treated with different agents for various time periods. The cells were lysed to prepare protein extracts. IP was carried out by incubating approximately 1 mg of the protein lysate with appropriate antibodies. The immunoprecipitates were then analyzed by SDS-PAGE, followed by WB with respective, interacting protein. For Gst-pulldown, Gst-H2AX or various His-TAT-HA-tagged CARP-1 peptides were generated in Escherichia coli (E. coli) BL21 cells essentially as described by us previously. Briefly, the competent E. coli BL-21 (DE3) pLysS cells were transformed separately with various recombinant pGEX-4T-1 or pTAT-HA constructs. The transformed cells were then subjected to selection by combined presence of ampicillin and chloramphenicol; various isolates for each transformation were obtained and bacterial lysates were characterized for expression of fusion peptides. Cells from each isolate were grown in 4 mL of LB medium containing ampicillin only until the optical density (OD)600 reached 0.4–0.8. Expression of fusion peptides was induced over 2–4 h incubation periods after Isopropyl β-D-1-thiogalactopyranoside (IPTG) addition. The cells were harvested, and pellets were stored at −80 °C overnight. The cell pellets were then lysed in 100–400 μL of bacterial protein extraction reagent (BPER) buffer (Thermo Scientific, Waltham, MA, USA, Cat# 78243) containing 2 μL/mL of 10 units/μL DNAse I (Boehringer Mannheim, Fremont, CA, USA, Cat # 776–785), and supernatant checked for expression of respective fusion peptides by WB. Following confirmation of expression, 5–20 μL of lysate expressing Gst fusion protein was first incubated with 20 μL of precleared glutathione sepharose in a final volume of 100 μL at 4 °C for 2 h with constant rotation. The sepharose beads were spun at 800× g for 2 min, and the pellet was washed 2–4 times with 100–200 μL of RIPA buffer (20 mM Tris-HCl (pH 7.5), 150 mM NaCl, 1 mM Na2EDTA, 1 mM EGTA, 1% NP-40, 1% sodium deoxycholate, 2.5 mM sodium pyrophosphate, 1 mM β-glycerophosphate, 1 mM Na3VO4, 1 µg/mL leupeptin) with 0.5 M NaCl. The beads were spun again as above, and mixed with 5–20 μL of E. coli lysate expressing His-TAT-HA CARP-1 peptides. The reactions were incubated further at 4 °C for 2 h with constant rotation. The peptide-bound sepharose beads were pelleted and washed with 100–200 μL of RIPA buffer with 0.1 M NaCl for 2–4 washes. In some cases, additional washes with 0.05 M NaCl buffer were carried out. After the final wash, the sepharose–protein complexes were spun, and then re-suspended in SDS loading buffer for electrophoresis on 12–15% SDS PAGE, followed by WB with appropriate antibodies.
Here, we utilized human TNBC MDA-MB-468 and human cervical cancer HeLa cells to conduct an MTT-based dose-response analysis using Adriamycin and CFM compounds. […] Since Adriamycin, CFM-4, and CFM-4.16 have molecular masses of 543.3, 404.9, and 440.3, respectively, we chose to use an equimolar dose of each compound in the MTT assays. […] Prior reports established that phosphorylation of H2AX at serine 139 (γ-H2AX) is involved in DNA damage repair and apoptotic signaling by ATM/ATR and JNKs, respectively. Next, the MDA-MB-468, HeLa, and the kidney cancer UOK 262 cells were treated with a 10 μM dose of the CFM-4.16 or Adriamycin for various time periods. The cell lysates from the control, untreated, and treated cells were analyzed by WB for expression of CARP-1, phospho-JNK1/2, phospho-H2AX, and poly ADP ribose polymerase (PARP) proteins. […] The H2AX activation is also indicative of DNA damage and involves pro-apoptotic JNKs. Our data in Figure 1C and Figure S1B,C (Supplementary Materials) also show activation of JNKs; however, a robust JNK activation is co-incident with H2AX phosphorylation following treatments with Adriamycin or CFM-4.16. […]

Structure (SMILES)	H2AX activation (10 μM Adriamycin, WB)	expression of CARP-1, phospho-JNK1/2, phospho-H2AX (10 μM)	PARP cleavage (10 μM)	time of earliest stimulation of PARP cleavage (10 μM, MDA-MB-468, "as early as") [h]	γH2AX (MDA-MB-468, Adriamycin alone, WB)	CARP-1 levels and γH2AX
COc1cccc2c1C(=O)c1c(O)c3c(c(O)c1C2=O)C[C@@](O)(C(=O)CO)C[C@@H]3O[C@H]1C[C@H](N)[C@H](O)[C@H](C)O1 [Adriamycin, doxorubicin, reference compound]	robust at 12 h	stimulated expression of CARP-1, phospho-JNK1/2, and phospho-H2AX in a time-dependent manner	provoked PARP cleavage in a time-dependent manner	3	robust increase in γH2AX	robust increase in CARP-1 levels and γH2AX
O=C1N(Cc2ccccc2Cl)c2ccccc2C12NN=C(c1cccc(Cl)c1)S2 (stereo not drawn) [CFM-4.16]		stimulated expression of CARP-1, phospho-JNK1/2, and phospho-H2AX in a time-dependent manner	provoked PARP cleavage in a time-dependent manner			robust increase in CARP-1 levels and γH2AX
